Experimental data taken from patent publication US8946216B2, “Indazole derivatives useful as ERK inhibitors” (Merck Sharp & Dohme Corp., priority 2010, dated 2015).

How the values were obtained:
ERK protein = ERK protein (Homo sapiens, UniProt P28482); assay: TdF (Temperature Dependence Fluorescence, thermal shift) assay for ERK; format: binding; conditions: read-out: TdF Kd; 3 μM ERK protein, 15, 50 or 100 μM compound, Sypro Orange; Kd calculated from ΔTm; uncertainty estimated ±50%
Text: Assays: TdF Assay for ERK
The SAR (Structure Activity Relationship) for ERK ligands covered by this invention was interrogated using the TdF (Temperature Dependence Fluorescence) assay or best known as thermal shift assay. The TdF assay was mainly conducted in the 96-well based CHROMO-4 real time fluorescence plate reader (BioRad). The Sypro Orange (Sigma-Aldrich), environmentally sensitive fluorescence dye, was used to monitor the protein folding-unfolding transition. Protein-ligand binding was gauged by the change (or shift) in the unfolding transition temperature (ΔTm) acquired at protein alone with respect to protein in the presence of ligand of interest.
Compound of interest was first prepared in DMSO stock (typical concentration: 10 mM). Sample of 20 μL was then added into the 96-well PCR plate, where it consisted of 3 μM. […] Final percentage of DMSO resided in the sample was 2%. The sample plate was heated from 30° C. to 90° C. with thermal ramping rate of 1 ° C./min. The fluorescence signals were acquired with excitation and emission wavelengths centered at 490 and 560 nm respectively. The instrument thermal stability was ±0.2° C. The melting temperatures (Tm) for ERK protein under aforementioned conditions occurred at 61.0±0.2° C. and 64.8±0.2° C. respectively.
Theoretical Basis for TdF-based Ligand Binding Affinity Constant
The derivation of TdF-based ligand binding affinity constant (Kd) followed closely those previously formulated by Brandts and Lin [2]. In brief, the binding constant of the ligand at the Tm is expressed as below: […]
where T0 is the midpoint of unfolding for unliganded protein and Tm is the midpoint of unfolding in presence of ligand. [LTm] is free ligand at Tm. The ΔHu and ΔCpu are the enthalpy of unfolding and heat capacity change of unfolding for the protein respectively. Following algorithm derived by Winsor and coworker, the T0, ΔHu and ΔCpu can be determined separately from nonlinear regression fitting the protein alone melting curve:
Where F(T) is the observed fluorescence intensity at any temperature T, Yn and Yu are the predicted fluorescence intensities for fully folded and unfolded protein, respectively; mn and mu are slope correction for changes in Yn and Yu with respect to changes in temperature (analogously replace T0 with Tm in the above equation for liganded protein to yield Tm).
where ΔHL(T) is the van't Hoff enthalpy of ligand binding at temperature T and ΔCpL is the heat capacity upon ligand binding. For simplicity, the ΔCpL and ΔHL(T) were set to zero and −7 kcal/mol respectively. The uncertainty in the calculated ligand binding affinity constant was estimated to be ±50%.

[1] = target: unphosphorylated Mouse ERK2 protein (inactive ERK2) (Mus musculus, UniProt P63085); assay: Coupled ERK2 (cERK) assay, coupled MEK1/ERK2 IMAP; format: biochemical; conditions: 30 min preincubation with inactive ERK2, then activation by human MEK1; 30 μM ATP; fluorescence polarization; read-out: cERK2 IC50
Sequence of unphosphorylated Mouse ERK2 protein (inactive ERK2) (P63085 whole entry): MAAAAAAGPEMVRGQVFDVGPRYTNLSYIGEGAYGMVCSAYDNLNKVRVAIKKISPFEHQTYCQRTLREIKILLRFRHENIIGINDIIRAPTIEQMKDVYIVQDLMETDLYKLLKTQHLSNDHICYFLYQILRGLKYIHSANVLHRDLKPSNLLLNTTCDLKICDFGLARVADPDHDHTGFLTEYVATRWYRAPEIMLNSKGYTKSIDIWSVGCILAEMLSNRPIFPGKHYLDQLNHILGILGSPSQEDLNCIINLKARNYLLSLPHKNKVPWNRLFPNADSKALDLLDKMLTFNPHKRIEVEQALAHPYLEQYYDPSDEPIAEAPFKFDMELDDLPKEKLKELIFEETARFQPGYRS
Text: • 1. M. W. Pantoliana, E. C. Petrella, J. D. Kwasnoski, V. S. Lobanov, J. Myslik, E. Graf, T. Carver, E. Asel, B. A. Springer, P. Lane, F. R. Salemme, High-density miniaturized thermal shift assays as a general strategy for drug discovery, J. Biomol. Screen 6 (2001) 429-440 • 2. J. F. Brandts, L.-N. Lin, Study of strong to ultratight protein interactions using differential scanning calorimetry, Biochemistry 29 (1990) 6927-6940 • 3. Mayhood, T. W., Windsor, W. T., Ligand binding affinity determined by temperature-dependent circular dichroism: Cyclin-dependent kinase 2 inhibitors, Analytical Biochemistry 345 (2005) 187-197 Coupled ERK2 (cERK) Assay:
14 μl of kinase buffer (10 mM Tris.HCl pH 7.2, 10 mM MgCl2, 0.01% Tween-20, 1 mM DTT) containing 0.4 ng unphosphorylated Mouse ERK2 protein was added to each well of a black 384-well assay plate. […] DMSO concentration during initial incubation is 6.7%. ERK2 activity was determined to be insensitive to DMSO concentrations up to 20%. ERK2 was then activated and it's kinase activity measured by the addition of 10 μl kinase buffer with the following components (final concentration per reaction): 2 ng active (phosphorylated) human MEK1 protein and 4 μM (total) ERK2 IMAP substrate peptides (3.9 μM unlabeled IPTTPITTTYFFFK-CONH2 and 100 nM IPTTPITTTYFFFK(5-carboxyfluorescein)-CONH2) and 30 μM ATP. DMSO concentration during ERK activation was 4%. After one hour, reactions were terminated by addition of 60 μl IMAP detections beads in binding buffer (Molecular Devices). Binding was allowed to equilibrate for 30 minutes before reading the plate on an LJL Analyst Fluorescence Polarization plate reader. […] Active compounds were reconfirmed in an independent assay.

[2] = target: fully phosphorylated, active Mouse ERK2 protein (Mus musculus, UniProt P63085); assay: Active ERK2 (aERK) assay, IMAP format; format: biochemical; conditions: 30 min preincubation; 1 μM substrate peptide, 30 μM ATP; fluorescence polarization; read-out: aERK2 IC50
Sequence of fully phosphorylated, active Mouse ERK2 protein (P63085 whole entry): as above
Procedure: Active ERK2 (aERK) Assay:
Activated ERK2 activity was also determined in the IMAP assay format using the procedure outlined above. 1 μl of 25× compound was added to 14 μl of kinase buffer containing 0.25 ng fully phosphorylated, active Mouse ERK2 protein. Following a 30 minute incubation, the reactions were initiated by addition of 10 μl of kinase buffer containing 1 μM ERK2 IMAP substrate peptide (0.9 μM unlabeled IPTTPITTTYFFFK--CONH2 and 100 nM IPTTPITTTYFFFK(5-carboxyfluorescein)-CONH2) and 30 μM ATP. Reactions proceeded for 30 minutes before termination by addition of 60 μl IMAP detection beads in binding buffer. Plates were read as above after 30 minute binding equilibration. Active compounds were reconfirmed in an independent assay.

Sequence of ERK protein (P28482 2-360): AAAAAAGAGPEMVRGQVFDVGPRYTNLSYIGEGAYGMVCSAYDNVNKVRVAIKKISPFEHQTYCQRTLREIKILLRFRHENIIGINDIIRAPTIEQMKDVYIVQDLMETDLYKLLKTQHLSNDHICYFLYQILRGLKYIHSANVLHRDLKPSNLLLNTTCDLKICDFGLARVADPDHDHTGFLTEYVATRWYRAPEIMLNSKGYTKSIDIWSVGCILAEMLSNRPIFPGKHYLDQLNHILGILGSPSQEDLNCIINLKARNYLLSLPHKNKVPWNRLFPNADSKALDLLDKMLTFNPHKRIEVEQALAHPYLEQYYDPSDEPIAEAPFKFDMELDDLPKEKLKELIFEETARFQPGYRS

Row | Compound | Kd (ERK protein) [nM] | IC50 [1] [nM] | IC50 [2] [nM]
1 | CC(C)Oc1ccc(-c2n[nH]c3ccc(NC(=O)C4CN(Cc5ccccc5)CCO4)cc23)cn1 (stereo not shown) [Compound 1, N-[3-[6-(1-METHYLETHOXY)-3-PYRIDINYL]-1H-INDAZOL-5-YL]-4-(PHENYLMETHYL)-2-MORPHOLINECARBOXAMIDE] | 240 | 532 | 1000
2 | O=C(Nc1ccc2[nH]nc(-c3ccncc3)c2c1)C1CN(Cc2cscn2)CCO1 (stereo not shown) [Compound 2, N-[3-(4-PYRIDINYL)-1H-INDAZOL-5-YL]-4-(4-THIAZOLYLMETHYL)-2-MORPHOLINECARBOXAMIDE] | 546 | 1840 | 583
3 | O=C(Nc1ccc2[nH]nc(-c3ccncc3)c2c1)C1CN(Cc2ccccc2F)CCO1 (stereo not shown) [Compound 4, 4-[(2-FLUOROPHENYL)METHYL]-N-[3-(4-PYRIDINYL)-1H-INDAZOL-5-YL]-2-MORPHOLINECARBOXAMIDE] | 20 | 29.3 | 20.7
4 | O=C(Nc1ccc2[nH]nc(-c3ccncc3)c2c1)C1CN(Cc2ccccn2)CCO1 (stereo not shown) [Compound 5, N-[3-(4-PYRIDINYL)-1H-INDAZOL-5-YL]-4-(2-PYRIDINYLMETHYL)-2-MORPHOLINECARBOXAMIDE] | 647 | 2440 | 1070
5 | O=C(Nc1ccc2[nH]nc(-c3ccncc3)c2c1)C1CN(Cc2ccccc2Cl)CCS1 (stereo not shown) [Compound 9, 4-[(2-CHLOROPHENYL)METHYL]-N-[3-(4-PYRIDINYL)-1H-INDAZOL-5-YL]-2-THIOMORPHOLINECARBOXAMIDE] | 20 | 42.4 | 54.2
6 | O=C(Nc1ccc2[nH]nc(-c3ccncc3)c2c1)C1CN(Cc2ccccc2F)CCS1 (stereo not shown) [Compound 10, 4-[(2-FLUOROPHENYL)METHYL]-N-[3-(4-PYRIDINYL)-1H-INDAZOL-5-YL]-2-THIOMORPHOLINECARBOXAMIDE] | 15 | 36.4 | 77.2
7 | Cc1nc(CN2CCSC(C(=O)Nc3ccc4[nH]nc(-c5ccncc5)c4c3)C2)cs1 (stereo not shown) [Compound 11, 4-[(2-METHYL-4-THIAZOLYL)METHYL]-N-[3-(4-PYRIDINYL)-1H-INDAZOL-5-YL]-2-THIOMORPHOLINECARBOXAMIDE] | 616 | 840 | 475
8 | O=C(Nc1ccc2[nH]nc(-c3ccncc3)c2c1)C1CN(Cc2ccc(Cl)cc2F)CCO1 (stereo not shown) [Compound 41, 4-[(4-CHLORO-2-FLUOROPHENYL)METHYL]-N-[3-(4-PYRIDINYL)-1H-INDAZOL-5-YL]-2-MORPHOLINECARBOXAMIDE] | 584 | 419 | 
9 | O=C(Nc1ccc2[nH]nc(-c3ccncc3)c2c1)C1CN(Cc2cc(C(F)(F)F)ccc2F)CCO1 (stereo not shown) [Compound 42, 4-[[2-FLUORO-5-(TRIFLUOROMETHYL)PHENYL]METHYL]-N-[3-(4-PYRIDINYL)-1H-INDAZOL-5-YL]-2-MORPHOLINECARBOXAMIDE] | 1260 | 2660 | 
10 | O=C(Nc1ccc2[nH]nc(-c3ccncc3)c2c1)C1CN(Cc2ccc(F)c(Cl)c2)CCO1 (stereo not shown) [Compound 49, 4-[(3-CHLORO-4-FLUOROPHENYL)METHYL]-N-[3-(4-PYRIDINYL)-1H-INDAZOL-5-YL]-2-MORPHOLINECARBOXAMIDE] | 910 | 1780 | 
11 | O=C(Nc1ccc2[nH]nc(-c3ccncc3)c2c1)C1CN(Cc2cc(F)ccc2F)CCO1 (stereo not shown) [Compound 51, 4-[(2,5-DIFLUOROPHENYL)METHYL]-N-[3-(4-PYRIDINYL)-1H-INDAZOL-5-YL]-2-MORPHOLINECARBOXAMIDE] | 727 | 400 | 
12 | O=C(Nc1ccc2[nH]nc(-c3ccncc3)c2c1)C1CNCCN1c1ccccc1 (stereo not shown) [Compound 54, 1-PHENYL-N-[3-(4-PYRIDINYL)-1H-INDAZOL-5-YL]-2-PIPERAZINECARBOXAMIDE] | 30 | 168 | 

Second part, the compound after the results:

Row | Kd (ERK protein) [nM] | IC50 [1] [nM] | IC50 [2] [nM] | Compound
13 | 34.5 |  | 287 | O=C(Nc1ccc2[nH]nc(-c3ccncc3)c2c1)[C@@H]1CCN(Cc2ccccc2)C1 [Compound 62, 1-(PHENYLMETHYL)-N-[3-(4-PYRIDINYL)-1H-INDAZOL-5-YL]-3(R)-PYRROLIDINECARBOXAMIDE]
14 |  |  | 1000 | O=C(Nc1ccc2[nH]nc(-c3ccncc3)c2c1)C1CN(CCCc2ccccc2)CCS1 (stereo not shown) [Compound 67, 4-(3-PHENYLPROPYL)-N-[3-(4-PYRIDINYL)-1H-INDAZOL-5-YL]-2-THIOMORPHOLINECARBOXAMIDE]
15 |  |  | 895 | O=C(Nc1ccc2[nH]nc(-c3ccncc3)c2c1)C1CN(CCc2ccccc2)CCS1 (stereo not shown) [Compound 68, 4-(2-PHENYLETHYL)-N-[3-(4-PYRIDINYL)-1H-INDAZOL-5-YL]-2-THIOMORPHOLINECARBOXAMIDE]
16 | 222 |  | 1000 | O=C(Nc1ccc2[nH]nc(-c3ccncc3)c2c1)C1CN(Cc2ccccc2)CCC12OCCO2 (stereo not shown) [Compound 72, 8-(PHENYLMETHYL)-N-[3-(4-PYRIDINYL)-1H-INDAZOL-5-YL]-1,4-DIOXA-8-AZASPIRO[4.5]DECANE-6-CARBOXAMIDE]
17 | 25.9 |  | 192 | CC(c1ccccc1)N1CCC[C@H](C(=O)Nc2ccc3[nH]nc(-c4ccncc4)c3c2)C1 (stereo partly drawn) [Compound 73, 1-(1-PHENYLETHYL)-N-[3-(4-PYRIDINYL)-1H-INDAZOL-5-YL]-3(S)-PIPERIDINECARBOXAMIDE]
18 | 250 | 350 |  | CNC(=O)c1n[nH]c2ccc(NC(=O)C3CN(Cc4ccccc4F)CCS3)cc12 (stereo not shown) [Compound 75, 5-[[[4-[(2-FLUOROPHENYL)METHYL]-2-THIOMORPHOLINYL]CARBONYL]AMINO]-N-METHYL-1H-INDAZOLE-3-CARBOXAMIDE]
19 | 920 | 873 |  | CCCCNC(=O)c1n[nH]c2ccc(NC(=O)C3CN(Cc4ccccc4F)CCS3)cc12 (stereo not shown) [Compound 76, N-BUTYL-5-[[[4-[(2-FLUOROPHENYL)METHYL]-2-THIOMORPHOLINYL]CARBONYL]AMINO]-1H-INDAZOLE-3-CARBOXAMIDE]
20 | 1800 | 3100 |  | O=C(NCc1ccccc1)c1n[nH]c2ccc(NC(=O)C3CN(Cc4ccccc4F)CCS3)cc12 (stereo not shown) [Compound 77, 5-[[[4-[(2-FLUOROPHENYL)METHYL]-2-THIOMORPHOLINYL]CARBONYL]AMINO]-N-(PHENYLMETHYL)-1H-INDAZOLE-3-CARBOXAMIDE]
21 |  |  | 1.9 | CN1CC(Cc2ccccc2)CC(C(=O)Nc2ccc3[nH]nc(-c4ccncc4)c3c2)C1 (stereo not shown) [Compound 78, 1-METHYL-5-(PHENYLMETHYL)-N-[3-(4-PYRIDINYL)-1H-INDAZOL-5-YL]-3-PIPERIDINECARBOXAMIDE]
